BigSolDB 2.1

NS(=O)(=O)Cc1noc2ccccc12
solubility (mole fraction)
Conditions | 273.15 K | 278.15 K | 283.15 K | 288.15 K | 293.15 K | 298.15 K | 303.15 K | 308.15 K | 313.15 K
in 1,4-dioxane | – | – | – | 0.024 | 0.0294 | 0.0354 | 0.0416 | 0.0488 | 0.0563
in 2-butanone | 0.0132 | 0.0154 | 0.0179 | 0.0209 | 0.0244 | 0.0282 | 0.0319 | 0.0358 | 0.0399
in DMF | 0.0192 | 0.0278 | 0.0374 | 0.0469 | 0.0575 | 0.0687 | 0.0812 | 0.0946 | 0.108
in acetonitrile | 0.00562 | 0.00691 | 0.00821 | 0.00982 | 0.0114 | 0.0131 | 0.0149 | 0.0171 | 0.0191
in cyclohexanone | 0.00739 | 0.00898 | 0.0109 | 0.0129 | 0.0155 | 0.0184 | 0.0218 | 0.0262 | 0.0307
in ethanol | 0.00112 | 0.00135 | 0.00159 | 0.00188 | 0.00221 | 0.00255 | 0.0029 | 0.0033 | 0.00373
in ethyl acetate | 0.00498 | 0.00558 | 0.00625 | 0.00704 | 0.00793 | 0.00882 | 0.0098 | 0.0108 | 0.0118
in isopropanol | 0.000617 | 0.000791 | 0.000996 | 0.00122 | 0.00146 | 0.00173 | 0.00207 | 0.00241 | 0.00274
in methanol | 0.00253 | 0.00274 | 0.00298 | 0.00326 | 0.00353 | 0.00387 | 0.00421 | 0.0046 | 0.005
in n-butanol | 0.00017 | 0.00026 | 0.000383 | 0.000528 | 0.000721 | 0.00095 | 0.00122 | 0.00148 | 0.00178
in n-propanol | 0.00041 | 0.000546 | 0.000697 | 0.000862 | 0.00105 | 0.00126 | 0.00149 | 0.00175 | 0.002
in toluene | 3.56e-05 | 5.05e-05 | 6.73e-05 | 8.69e-05 | 0.000106 | 0.000131 | 0.00016 | 0.000193 | 0.00023
